The target of experiment [1] is T1, muIDO2 (Mus musculus, UniProt Q8R0V5).
T1 sequence (Q8R0V5 1-405): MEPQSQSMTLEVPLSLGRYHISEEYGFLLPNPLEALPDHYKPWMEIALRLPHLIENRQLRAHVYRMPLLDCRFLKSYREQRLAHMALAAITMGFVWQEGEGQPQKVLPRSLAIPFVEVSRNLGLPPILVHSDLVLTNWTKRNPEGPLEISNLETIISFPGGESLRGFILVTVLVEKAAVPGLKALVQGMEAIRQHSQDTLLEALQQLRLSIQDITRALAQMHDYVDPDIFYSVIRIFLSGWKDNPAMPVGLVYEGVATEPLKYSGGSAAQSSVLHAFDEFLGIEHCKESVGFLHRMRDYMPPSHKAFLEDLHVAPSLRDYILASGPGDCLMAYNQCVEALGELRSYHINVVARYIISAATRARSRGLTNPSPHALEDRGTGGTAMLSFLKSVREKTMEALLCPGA
Nature of the experiment: kynurenine assay in 293-T-REx cells expressing muIDO2. The experiment is classed as cell-based.

Experiment [2] addresses muIDO1 (Mus musculus, UniProt P28776). Nature of the experiment: kynurenine assay in 293-T-REx cells expressing muIDO1. The experiment is classed as cell-based.

muIDO1, sequence (P28776 whole entry): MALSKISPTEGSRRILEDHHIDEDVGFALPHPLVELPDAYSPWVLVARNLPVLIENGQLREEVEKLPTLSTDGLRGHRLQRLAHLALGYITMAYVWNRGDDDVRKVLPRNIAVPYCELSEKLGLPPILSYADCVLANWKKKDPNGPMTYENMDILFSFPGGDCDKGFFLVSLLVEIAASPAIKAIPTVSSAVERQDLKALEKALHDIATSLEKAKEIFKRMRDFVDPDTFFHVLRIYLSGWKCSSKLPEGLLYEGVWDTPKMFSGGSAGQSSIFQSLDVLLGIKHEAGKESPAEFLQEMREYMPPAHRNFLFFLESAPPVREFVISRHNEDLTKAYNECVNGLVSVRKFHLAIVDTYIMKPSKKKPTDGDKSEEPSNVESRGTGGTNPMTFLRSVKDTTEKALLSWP

For `C=CC1=C(C)C2=Cc3c(C=C)c(C)c4[n]3[Zn][n]3c(c(C)c(CCC(=O)O)c3=CC3=NC(=C4)C(C)=C3CCC(=O)O)=CC1=N2` [ZnPP], the IC50 in experiment [1] worked out at 7.1 µM; in experiment [2] it was 3.3 µM.

Values taken from PMC2885048 (Molecular cancer therapeutics, 2010).
